The source of these data is ChEMBL document CHEMBL1135490, “Naphthalene dicarboxaldehyde as an electrophilic fluorogenic moiety for affinity labeling: application to opioid receptor affinity labels with greatly improved fluorogenic properties” (J Med Chem, 2002).

One may read the Ki as a measure of affinity in units of concentration, obtained from inhibition or displacement.

For the assay, the target named is Mu-type opioid receptor (Homo sapiens, UniProt P35372). Nature of the assay: Inhibition of [3H]- diprenorphine binding on Opioid receptor mu 1 expressed in human embryonic kidney (HEK) cells. The format is cell-based.
Chain of Mu-type opioid receptor (P35372 whole entry): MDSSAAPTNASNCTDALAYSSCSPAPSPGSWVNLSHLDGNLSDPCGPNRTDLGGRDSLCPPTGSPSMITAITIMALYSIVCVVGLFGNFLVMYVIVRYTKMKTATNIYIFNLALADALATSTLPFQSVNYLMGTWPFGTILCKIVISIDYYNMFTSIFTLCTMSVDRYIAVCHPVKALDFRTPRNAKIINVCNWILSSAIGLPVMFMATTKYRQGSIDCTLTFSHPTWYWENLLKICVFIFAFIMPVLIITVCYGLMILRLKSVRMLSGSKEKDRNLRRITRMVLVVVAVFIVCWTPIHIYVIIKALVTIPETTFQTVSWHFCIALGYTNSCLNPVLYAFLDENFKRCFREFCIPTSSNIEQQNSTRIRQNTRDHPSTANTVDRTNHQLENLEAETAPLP

Compound `O=Cc1cc2ccc(C(=O)N[C@@H]3CC[C@@]4(O)C5Cc6ccc(O)c7c6[C@@]4(CCN5CC4CC4)[C@H]3O7)cc2cc1C=O` showed a Ki of 0.744 nM.
